According to PubChem BioAssay (NCI):
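Method: 48-hour compound exposure of cells in 96-well plates, five concentrations, linear interpolation of endpoints. The concentration for 50% growth inhibition is given as GI50. TGI denotes the concentration required for complete inhibition of growth.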

Legend:
Test in all cases: growth of human tumour cells (NCI), 48 h
NCI-H522 lung = test system: NCI-H522 lung
MDA-MB-231 breast = test system: MDA-MB-231 breast
SK-MEL-5 melanoma = test system: SK-MEL-5 melanoma
UO-31 renal = test system: UO-31 renal
HOP-92 NSCLC = test system: HOP-92 NSCLC
SNB-19 CNS = test system: SNB-19 CNS
NCI-H23 lung = test system: NCI-H23 lung
DU-145 prostate = test system: DU-145 prostate
RXF 393 renal = test system: RXF 393 renal
PC-3 prostate = test system: PC-3 prostate
LOX IMVI melanoma = test system: LOX IMVI melanoma
SF-539 CNS = test system: SF-539 CNS
OVCAR-4 ovarian = test system: OVCAR-4 ovarian
SK-MEL-28 melanoma = test system: SK-MEL-28 melanoma
SF-268 CNS = test system: SF-268 CNS
UACC-62 melanoma = test system: UACC-62 melanoma
MALME-3M melanoma = test system: MALME-3M melanoma
SF-295 CNS = test system: SF-295 CNS
K-562 leukemia = test system: K-562 leukemia
MDA-MB-435 = test system: MDA-MB-435
SK-OV-3 ovarian = test system: SK-OV-3 ovarian
TK-10 renal = test system: TK-10 renal
U251 CNS = test system: U251 CNS
RPMI-8226 leukemia = test system: RPMI-8226 leukemia
SR leukemia = test system: SR leukemia
786-0 renal = test system: 786-0 renal
SN12C renal = test system: SN12C renal
UACC-257 melanoma = test system: UACC-257 melanoma
HCT-15 colon = test system: HCT-15 colon
SNB-75 CNS = test system: SNB-75 CNS
EKVX NSCLC = test system: EKVX NSCLC
OVCAR-5 ovarian = test system: OVCAR-5 ovarian
HOP-62 NSCLC = test system: HOP-62 NSCLC
T-47D breast = test system: T-47D breast
NCI-H460 lung = test system: NCI-H460 lung
OVCAR-3 ovarian = test system: OVCAR-3 ovarian
MCF7 breast = test system: MCF7 breast
IGROV1 ovarian = test system: IGROV1 ovarian
CCRF-CEM leukemia = test system: CCRF-CEM leukemia
HCT-116 colon = test system: HCT-116 colon
HT29 colon = test system: HT29 colon
OVCAR-8 ovarian = test system: OVCAR-8 ovarian
NCI/ADR-RES ovarian = test system: NCI/ADR-RES ovarian
MOLT-4 leukemia = test system: MOLT-4 leukemia
HCC-2998 colon = test system: HCC-2998 colon
HL-60(TB) leukemia = test system: HL-60(TB) leukemia
M14 melanoma = test system: M14 melanoma
ACHN renal = test system: ACHN renal
NCI-H226 lung = test system: NCI-H226 lung
HS 578T breast = test system: HS 578T breast
A549 NSCLC = test system: A549 NSCLC
A498 renal = test system: A498 renal
CAKI-1 renal = test system: CAKI-1 renal
SK-MEL-2 melanoma = test system: SK-MEL-2 melanoma
SW-620 colon = test system: SW-620 colon
KM12 colon = test system: KM12 colon
COLO 205 colon = test system: COLO 205 colon
BT-549 breast = test system: BT-549 breast

Cc1ccc(CN(C)c2ccc(CO)c(Cl)c2)cc1
GI50 (NCI-H522 lung): 17.2 µM | TGI (NCI-H522 lung): 65.6 µM | GI50 (MDA-MB-231 breast): 21.9 µM | TGI (MDA-MB-231 breast): > 100 µM | GI50 (SK-MEL-5 melanoma): 5.44 µM | TGI (SK-MEL-5 melanoma): 18 µM | GI50 (UO-31 renal): 6.54 µM | TGI (UO-31 renal): 75.9 µM | GI50 (HOP-92 NSCLC): 1.98 µM | TGI (HOP-92 NSCLC): 36.7 µM | GI50 (SNB-19 CNS): 34.8 µM | TGI (SNB-19 CNS): > 100 µM | GI50 (NCI-H23 lung): 12.6 µM | TGI (NCI-H23 lung): > 80 µM | GI50 (DU-145 prostate): 22.6 µM | TGI (DU-145 prostate): > 100 µM | GI50 (RXF 393 renal): 6.9 µM | TGI (RXF 393 renal): 26.5 µM | GI50 (PC-3 prostate): 24.2 µM | TGI (PC-3 prostate): 97.5 µM | GI50 (LOX IMVI melanoma): 17.9 µM | TGI (LOX IMVI melanoma): > 52.7 µM | GI50 (SF-539 CNS): 30 µM | TGI (SF-539 CNS): > 94.1 µM | GI50 (OVCAR-4 ovarian): 1.52 µM | TGI (OVCAR-4 ovarian): 13.7 µM | GI50 (SK-MEL-28 melanoma): 15.6 µM | TGI (SK-MEL-28 melanoma): 53.6 µM | GI50 (SF-268 CNS): 30.8 µM | TGI (SF-268 CNS): > 100 µM | GI50 (UACC-62 melanoma): 0.282 µM | TGI (UACC-62 melanoma): 2.71 µM | GI50 (MALME-3M melanoma): 19.7 µM | TGI (MALME-3M melanoma): 59 µM | GI50 (SF-295 CNS): 3.37 µM | TGI (SF-295 CNS): > 76 µM | GI50 (K-562 leukemia): 6.05 µM | TGI (K-562 leukemia): > 100 µM | GI50 (MDA-MB-435): 29.8 µM | TGI (MDA-MB-435): > 100 µM | GI50 (SK-OV-3 ovarian): 5.8 µM | TGI (SK-OV-3 ovarian): 30.3 µM | GI50 (TK-10 renal): 0.194 µM | TGI (TK-10 renal): 0.938 µM | GI50 (U251 CNS): 3.92 µM | TGI (U251 CNS): 39.9 µM | GI50 (RPMI-8226 leukemia): 10.2 µM | TGI (RPMI-8226 leukemia): > 65.2 µM | GI50 (SR leukemia): 23.7 µM | TGI (SR leukemia): > 86.8 µM | GI50 (786-0 renal): 11.8 µM | TGI (786-0 renal): 31.9 µM | GI50 (SN12C renal): 14 µM | TGI (SN12C renal): 49.5 µM | GI50 (UACC-257 melanoma): 0.344 µM | TGI (UACC-257 melanoma): 1.31 µM | GI50 (HCT-15 colon): 13.4 µM | TGI (HCT-15 colon): > 100 µM | GI50 (SNB-75 CNS): 17.2 µM | TGI (SNB-75 CNS): 78.2 µM | GI50 (EKVX NSCLC): 18.6 µM | TGI (EKVX NSCLC): 79.7 µM | GI50 (OVCAR-5 ovarian): 0.446 µM | TGI (OVCAR-5 ovarian): 2.48 µM | GI50 (HOP-62 NSCLC): 3.44 µM | TGI (HOP-62 NSCLC): 29.9 µM | GI50 (T-47D breast): 0.367 µM | TGI (T-47D breast): 2.4 µM | GI50 (NCI-H460 lung): 1.17 µM | TGI (NCI-H460 lung): 11.5 µM | GI50 (OVCAR-3 ovarian): 3.06 µM | TGI (OVCAR-3 ovarian): 12.5 µM | GI50 (MCF7 breast): 0.676 µM | TGI (MCF7 breast): 12 µM | GI50 (IGROV1 ovarian): 0.363 µM | TGI (IGROV1 ovarian): 2.52 µM | GI50 (CCRF-CEM leukemia): 33.7 µM | TGI (CCRF-CEM leukemia): > 100 µM | GI50 (HCT-116 colon): 0.395 µM | TGI (HCT-116 colon): 11.6 µM | GI50 (HT29 colon): 6.07 µM | TGI (HT29 colon): 30 µM | GI50 (OVCAR-8 ovarian): 14.3 µM | TGI (OVCAR-8 ovarian): > 80.1 µM | GI50 (NCI/ADR-RES ovarian): 16.1 µM | TGI (NCI/ADR-RES ovarian): 63.2 µM | GI50 (MOLT-4 leukemia): 25.4 µM | TGI (MOLT-4 leukemia): > 79.7 µM | GI50 (HCC-2998 colon): 13.9 µM | TGI (HCC-2998 colon): > 60.6 µM | GI50 (HL-60(TB) leukemia): 15.1 µM | TGI (HL-60(TB) leukemia): 56 µM | GI50 (M14 melanoma): 20.9 µM | TGI (M14 melanoma): > 65.1 µM | GI50 (ACHN renal): 23.6 µM | TGI (ACHN renal): > 100 µM | GI50 (NCI-H226 lung): 0.119 µM | TGI (NCI-H226 lung): 0.257 µM | GI50 (HS 578T breast): 26.2 µM | TGI (HS 578T breast): > 100 µM | GI50 (A549 NSCLC): 3.69 µM | TGI (A549 NSCLC): 27.7 µM | GI50 (A498 renal): 0.056 µM | TGI (A498 renal): 0.196 µM | GI50 (CAKI-1 renal): 2.4 µM | TGI (CAKI-1 renal): 45.8 µM | GI50 (SK-MEL-2 melanoma): 8.26 µM | TGI (SK-MEL-2 melanoma): 31 µM | GI50 (SW-620 colon): 5.23 µM | TGI (SW-620 colon): > 100 µM | GI50 (KM12 colon): 21.3 µM | TGI (KM12 colon): 72 µM | GI50 (COLO 205 colon): 3.24 µM | TGI (COLO 205 colon): 10.5 µM | GI50 (BT-549 breast): 13.2 µM | TGI (BT-549 breast): 37 µM
